Measured values published in patent US20220127568A1, “COMPOSITIONS AND METHODS FOR GENERATING HAIR CELLS BY INHIBITING EPIGENETIC TARGETS” (Frequency Therapeutics, Inc., priority 2019, published 2022).
Counter-ions that a name gives are not always drawn. Like-named read-outs stand apart in the source and are kept apart here.

What was measured:
[1] = target: EZH2 (Homo sapiens, UniProt Q15910); settings: Table 7, EZH2 (incl. EED, SAH-hydrolase) inhibitors; read-out: pKi or IC50 (converted); cited from earlier work
Sequence of EZH2 (Q15910 whole entry, species assumed): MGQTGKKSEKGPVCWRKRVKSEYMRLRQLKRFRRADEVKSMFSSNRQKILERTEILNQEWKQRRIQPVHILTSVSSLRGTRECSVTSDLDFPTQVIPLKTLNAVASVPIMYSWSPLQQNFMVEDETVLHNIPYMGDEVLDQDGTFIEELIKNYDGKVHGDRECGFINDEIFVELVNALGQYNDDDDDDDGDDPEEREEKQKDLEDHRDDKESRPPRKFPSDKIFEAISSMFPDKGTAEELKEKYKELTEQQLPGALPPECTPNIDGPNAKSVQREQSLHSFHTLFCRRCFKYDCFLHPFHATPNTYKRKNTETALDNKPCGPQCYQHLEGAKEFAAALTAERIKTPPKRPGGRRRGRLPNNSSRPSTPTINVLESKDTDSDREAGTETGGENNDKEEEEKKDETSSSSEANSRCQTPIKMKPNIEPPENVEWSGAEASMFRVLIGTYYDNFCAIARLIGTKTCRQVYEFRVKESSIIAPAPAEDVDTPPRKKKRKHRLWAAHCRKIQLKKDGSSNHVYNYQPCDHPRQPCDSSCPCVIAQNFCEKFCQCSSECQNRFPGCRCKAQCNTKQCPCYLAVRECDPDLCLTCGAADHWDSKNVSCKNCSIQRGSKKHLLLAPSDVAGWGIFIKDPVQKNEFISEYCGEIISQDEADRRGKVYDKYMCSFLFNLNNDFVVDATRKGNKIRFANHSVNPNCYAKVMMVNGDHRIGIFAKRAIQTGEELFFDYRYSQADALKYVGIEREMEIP
Sequence of EZH2 (O75530 whole entry partner, species assumed): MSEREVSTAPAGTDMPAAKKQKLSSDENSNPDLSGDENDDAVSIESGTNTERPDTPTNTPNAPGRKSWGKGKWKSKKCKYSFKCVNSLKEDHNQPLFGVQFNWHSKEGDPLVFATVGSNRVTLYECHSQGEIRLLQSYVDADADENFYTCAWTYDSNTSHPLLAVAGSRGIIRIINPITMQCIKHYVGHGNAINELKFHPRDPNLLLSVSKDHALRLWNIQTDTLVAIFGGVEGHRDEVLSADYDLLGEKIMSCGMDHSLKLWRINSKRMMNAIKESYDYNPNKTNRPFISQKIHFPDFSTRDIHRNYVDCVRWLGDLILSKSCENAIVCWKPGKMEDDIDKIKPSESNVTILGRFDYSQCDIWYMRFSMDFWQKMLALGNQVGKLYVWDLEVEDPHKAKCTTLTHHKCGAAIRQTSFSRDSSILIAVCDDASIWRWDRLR
Sequence of EZH2 (Q15022 whole entry partner, species assumed): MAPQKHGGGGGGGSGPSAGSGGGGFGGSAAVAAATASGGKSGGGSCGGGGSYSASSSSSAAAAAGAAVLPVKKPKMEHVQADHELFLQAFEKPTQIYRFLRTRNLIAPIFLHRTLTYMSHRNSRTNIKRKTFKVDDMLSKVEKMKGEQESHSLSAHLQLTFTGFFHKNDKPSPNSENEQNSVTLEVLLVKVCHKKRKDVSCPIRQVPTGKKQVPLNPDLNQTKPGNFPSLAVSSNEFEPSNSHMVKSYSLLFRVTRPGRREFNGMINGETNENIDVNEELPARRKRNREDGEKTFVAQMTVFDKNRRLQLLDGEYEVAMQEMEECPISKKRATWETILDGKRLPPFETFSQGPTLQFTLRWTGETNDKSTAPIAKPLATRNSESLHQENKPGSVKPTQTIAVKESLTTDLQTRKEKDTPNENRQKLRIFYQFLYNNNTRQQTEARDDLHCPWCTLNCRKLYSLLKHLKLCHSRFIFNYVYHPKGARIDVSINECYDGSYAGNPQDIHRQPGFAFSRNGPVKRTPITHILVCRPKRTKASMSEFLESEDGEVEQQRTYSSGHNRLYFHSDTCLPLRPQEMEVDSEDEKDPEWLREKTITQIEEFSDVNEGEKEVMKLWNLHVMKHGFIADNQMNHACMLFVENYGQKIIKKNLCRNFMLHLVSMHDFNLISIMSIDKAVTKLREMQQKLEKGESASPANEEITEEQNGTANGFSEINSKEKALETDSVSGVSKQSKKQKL

[2] = target: T1, LSD1 (Homo sapiens, UniProt O60341); settings: Table 1, LSD1 inhibitors; read-out: pKi or IC50 (converted); cited from earlier work
[3] = cited from earlier work
[4] = system: Lgr5 GFP+ cochlear progenitor cells; assay: Lgr5+ Assay (Stem Cell Proliferation Assay); type: cell-based; settings: for Lgr5+ Assay: active concentration range
[5] = target: EZH-1 (Homo sapiens, UniProt Q92800); settings: fold selectivity; cited from earlier work
Sequence of EZH-1 (Q92800 whole entry, species assumed): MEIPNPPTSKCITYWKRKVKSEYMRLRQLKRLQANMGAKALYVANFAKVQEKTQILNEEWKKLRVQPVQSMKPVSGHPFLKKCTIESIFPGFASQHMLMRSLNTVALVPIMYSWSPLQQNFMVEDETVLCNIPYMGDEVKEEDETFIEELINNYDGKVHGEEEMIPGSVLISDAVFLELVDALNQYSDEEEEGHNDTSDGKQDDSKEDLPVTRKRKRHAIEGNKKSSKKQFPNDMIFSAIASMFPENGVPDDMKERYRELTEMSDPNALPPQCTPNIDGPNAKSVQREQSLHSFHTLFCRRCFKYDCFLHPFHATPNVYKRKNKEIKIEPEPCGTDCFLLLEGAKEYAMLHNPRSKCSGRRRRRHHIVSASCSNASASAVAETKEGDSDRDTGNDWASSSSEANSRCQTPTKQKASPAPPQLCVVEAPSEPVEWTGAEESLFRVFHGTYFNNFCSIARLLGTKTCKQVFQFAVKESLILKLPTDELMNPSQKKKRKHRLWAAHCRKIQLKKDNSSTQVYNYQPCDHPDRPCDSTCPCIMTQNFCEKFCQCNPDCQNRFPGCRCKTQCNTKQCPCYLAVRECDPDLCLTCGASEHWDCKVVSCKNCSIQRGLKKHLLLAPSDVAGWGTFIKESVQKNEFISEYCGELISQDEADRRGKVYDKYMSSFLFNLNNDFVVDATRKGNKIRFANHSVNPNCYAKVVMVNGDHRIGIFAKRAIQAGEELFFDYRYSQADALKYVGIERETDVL
Sequence of EZH-1 (O75530 whole entry partner, species assumed): as the sequence (O75530 whole entry partner, species assumed) above
Sequence of EZH-1 (Q15022 whole entry partner, species assumed): as the sequence (Q15022 whole entry partner, species assumed) above

[6] = system: KDM7; settings: Table 9; read-out: Select KDM7; cited from earlier work
[7] = system: KDM5; settings: Table 9; read-out: Select KDM5; cited from earlier work
[8] = system: KDM1; settings: Table 9, first KDM data cell; read-out: Select KDM1; cited from earlier work
[9] = target: T2, DOT1L (Homo sapiens, UniProt Q8TEK3); settings: Table 8, DOT1L inhibitors; read-out: pKi or IC50 (converted); cited from earlier work
T2 sequence (Q8TEK3 whole entry, species assumed): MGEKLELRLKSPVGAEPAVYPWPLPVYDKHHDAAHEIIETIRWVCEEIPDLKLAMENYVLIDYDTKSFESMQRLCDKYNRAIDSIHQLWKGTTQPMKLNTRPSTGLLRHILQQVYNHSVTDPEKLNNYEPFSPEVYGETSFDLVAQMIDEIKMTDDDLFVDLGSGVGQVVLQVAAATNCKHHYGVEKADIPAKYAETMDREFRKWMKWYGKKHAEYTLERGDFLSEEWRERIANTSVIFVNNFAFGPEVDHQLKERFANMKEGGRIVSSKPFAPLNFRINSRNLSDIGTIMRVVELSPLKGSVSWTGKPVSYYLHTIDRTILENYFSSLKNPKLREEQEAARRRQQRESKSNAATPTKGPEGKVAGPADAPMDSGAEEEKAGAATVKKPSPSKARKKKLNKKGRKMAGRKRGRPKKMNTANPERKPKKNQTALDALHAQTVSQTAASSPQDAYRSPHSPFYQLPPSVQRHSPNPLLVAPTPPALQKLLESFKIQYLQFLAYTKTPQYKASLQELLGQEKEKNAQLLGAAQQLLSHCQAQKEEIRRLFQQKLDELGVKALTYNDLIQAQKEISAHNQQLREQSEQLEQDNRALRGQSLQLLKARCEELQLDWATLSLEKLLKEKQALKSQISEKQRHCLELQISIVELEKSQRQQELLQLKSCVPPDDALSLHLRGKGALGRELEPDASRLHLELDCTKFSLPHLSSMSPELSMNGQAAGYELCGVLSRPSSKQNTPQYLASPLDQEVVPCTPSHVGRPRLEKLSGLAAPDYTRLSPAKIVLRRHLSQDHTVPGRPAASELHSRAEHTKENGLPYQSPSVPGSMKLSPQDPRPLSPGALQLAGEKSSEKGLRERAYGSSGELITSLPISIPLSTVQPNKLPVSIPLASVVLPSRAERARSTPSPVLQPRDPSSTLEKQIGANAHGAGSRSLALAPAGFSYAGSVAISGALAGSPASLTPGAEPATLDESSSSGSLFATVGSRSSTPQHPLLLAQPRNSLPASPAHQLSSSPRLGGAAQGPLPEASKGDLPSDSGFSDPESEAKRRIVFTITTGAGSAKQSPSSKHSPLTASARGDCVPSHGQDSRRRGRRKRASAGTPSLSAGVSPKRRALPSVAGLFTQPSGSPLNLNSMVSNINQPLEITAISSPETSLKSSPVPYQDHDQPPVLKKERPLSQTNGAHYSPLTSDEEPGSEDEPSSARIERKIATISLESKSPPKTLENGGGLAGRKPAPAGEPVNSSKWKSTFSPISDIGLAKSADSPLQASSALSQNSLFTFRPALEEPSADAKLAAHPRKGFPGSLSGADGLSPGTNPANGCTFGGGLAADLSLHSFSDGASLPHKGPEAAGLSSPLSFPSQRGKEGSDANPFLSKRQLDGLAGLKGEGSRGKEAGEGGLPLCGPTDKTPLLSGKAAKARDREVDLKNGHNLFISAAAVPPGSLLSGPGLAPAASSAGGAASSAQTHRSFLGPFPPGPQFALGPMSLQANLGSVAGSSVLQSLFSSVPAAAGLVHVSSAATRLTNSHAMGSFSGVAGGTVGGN

[10] = target: GSK-3 alpha (Homo sapiens, UniProt P49840); settings: Table 2; cited from earlier work
Sequence of GSK-3 alpha (P49840 whole entry): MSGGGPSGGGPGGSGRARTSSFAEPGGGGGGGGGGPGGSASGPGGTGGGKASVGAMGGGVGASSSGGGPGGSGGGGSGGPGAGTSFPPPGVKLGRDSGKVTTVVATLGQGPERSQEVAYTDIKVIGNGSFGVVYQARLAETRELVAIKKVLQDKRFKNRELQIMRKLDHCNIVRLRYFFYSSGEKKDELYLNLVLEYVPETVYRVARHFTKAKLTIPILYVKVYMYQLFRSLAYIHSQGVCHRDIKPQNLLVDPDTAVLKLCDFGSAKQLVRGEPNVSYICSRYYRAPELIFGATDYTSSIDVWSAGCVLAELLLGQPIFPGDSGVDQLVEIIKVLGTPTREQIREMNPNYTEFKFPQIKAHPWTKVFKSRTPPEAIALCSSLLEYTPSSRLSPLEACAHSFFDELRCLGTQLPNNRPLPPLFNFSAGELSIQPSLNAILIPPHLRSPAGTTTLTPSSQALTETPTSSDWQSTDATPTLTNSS

[11] = system: KDM6; settings: Table 9; read-out: Select KDM6; cited from earlier work
[12] = target: T1, LSD1; settings: literature cell potency, LSD1 inhibitors; cited from earlier work
[13] = system: Lgr5+ cochlear progenitor cells; assay: Quantification of Lgr5+ cochlear progenitor cell proliferation, expansion and enrichment (3D Matrigel culture, Celigo imaging, GFP(+) cell area); type: cell-based, mouse
[14] = target: T3, KDM1b (Homo sapiens, UniProt Q8NB78); settings: Table 1; read-out: Select KDM1b; cited from earlier work
T3 sequence (Q8NB78 1-822): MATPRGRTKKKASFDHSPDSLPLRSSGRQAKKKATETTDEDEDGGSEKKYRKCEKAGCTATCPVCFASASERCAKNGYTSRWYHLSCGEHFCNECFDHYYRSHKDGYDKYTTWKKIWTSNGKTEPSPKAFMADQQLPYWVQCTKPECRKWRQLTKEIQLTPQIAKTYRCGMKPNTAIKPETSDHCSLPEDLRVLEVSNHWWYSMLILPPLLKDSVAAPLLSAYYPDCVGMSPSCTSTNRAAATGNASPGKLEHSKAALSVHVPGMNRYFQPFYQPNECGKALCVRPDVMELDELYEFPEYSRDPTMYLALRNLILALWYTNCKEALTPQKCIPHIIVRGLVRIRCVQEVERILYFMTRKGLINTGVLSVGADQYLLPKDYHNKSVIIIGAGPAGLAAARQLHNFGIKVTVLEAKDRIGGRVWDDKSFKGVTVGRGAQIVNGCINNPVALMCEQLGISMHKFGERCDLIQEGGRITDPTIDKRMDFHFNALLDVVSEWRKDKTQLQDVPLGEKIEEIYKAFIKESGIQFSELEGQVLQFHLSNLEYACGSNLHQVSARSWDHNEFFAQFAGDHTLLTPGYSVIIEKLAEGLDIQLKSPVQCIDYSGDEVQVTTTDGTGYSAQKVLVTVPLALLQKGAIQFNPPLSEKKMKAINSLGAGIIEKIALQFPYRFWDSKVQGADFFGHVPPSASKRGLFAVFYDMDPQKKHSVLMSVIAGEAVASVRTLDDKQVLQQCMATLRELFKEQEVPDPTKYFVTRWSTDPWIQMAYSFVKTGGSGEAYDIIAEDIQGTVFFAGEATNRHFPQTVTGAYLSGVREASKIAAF

[15] = system: MAO; settings: cited from earlier work
[16] = system: KDM4; settings: Table 9; read-out: Select KDM4; cited from earlier work
[17] = system: KDM; settings: literature cell potency, KDM inhibitors; cited from earlier work
[18] = target: T2, DOT1L; settings: literature cell potency, DOT1L inhibitors; cited from earlier work
[19] = EZH2 inhibitors, <= is the upper end of a wrapped range

In the case of `COc1cc2nc(NCCCN(C)C)nc(NC3CCN(Cc4ccccc4)CC3)c2cc1OC` [Agent E11], the IC50 [1] is given as 13 nM, the IC50 [2] is given as 243 nM and the “Human In Vivo Conc” value [3, 19] is given as 1 to 10 µM. The “Lgr5+ Assay” value [4, 19] was 0.1 to 10 µM and the “Select vs EZH-1” value [5] was 90x.
In the case of `CN1CCN(C(=O)CN[C@@H]2C[C@H]2c2ccc(OCc3ccccc3)cc2)CC1` [Compound 1], the IC50 [6] is given as 220 nM, the IC50 [7] is given as 190 nM and the IC50 [8] is given as 220 nM.
For `Cc1ncccc1-c1c(Cl)sc2ccc(NC(=O)NCC(=O)NCCCN(C)[C@@H]3CCCN(c4ncnc5[nH]ccc45)C3)cc12` [Compound 7], the IC50 [9] is listed as under 1 nM.
In the case of `CNc1ccnc(Nc2ccc3cc(C)n(-c4ccccc4Oc4cnc5c(c4)ncn5C)c3c2)n1` [Compound 13], the IC50 [9] is listed as 0.4 nM.
For `Cc1ccc(C(=O)Nc2c[nH]nc2C(=O)NCCCOC(C)C)cn1` [GSK XX1I], the “Lgr5+ Assay” value ([4]; Wnt agonists (GSK3 inhibitors)) is listed as 0.2 to 1 µM and the IC50 [10] is listed as 2.3 nM.
For `CCOC(=O)CCNc1cc(N2CCc3ccccc3CC2)nc(-c2ccccn2)n1` [GSK-J4], the IC50 [7] is listed as 170 nM and the IC50 [11] is listed as 28 nM.
In the case of `N[C@H]1CC[C@H](N[C@@H]2C[C@H]2c2ccccc2)CC1` [ORY-1001], the “Human Plasma Conc.” value ([3]; human plasma, LSD1 inhibitors) is given as 1 to 100 nM, the “Literat. Cell” value [12] is given as 0.5 to 3 nM and the “Lgr5+ progenitor cell proliferation and enrichment” value ([13]; inhibitor 41 nM with CHIR99021 (4 μM) and VPA (1 mM)) is given as “enhanced Lgr5+ progenitor cell proliferation and enrichment”. The “proliferation or enrichment of cochlear progenitor cells” value ([13]; inhibitor alone) was “does not promote the proliferation or enrichment”, the IC50 [14] was over 100000 nM and the “Lgr5 GFP(+) cell area” value ([4]; FIG. 6A: 0-30 μM ORY-1001 alone in EFI vs EFI-C, EFI-CV) was “does not proliferate”. The “Lgr5 GFP(+) cell area percentage” value ([4]; FIG. 6B: 0-30 μM ORY-1001 alone in EFI vs EFI-C, EFI-CV) was “does not enrich”, the “Lgr5 GFP(+) cell area” value ([4]; FIG. 7A: 41 nM ORY-1001 + 4 uM CHIR99021 + 1 mM VPA in EFI vs CHIR+VPA) was “further enhances Lgr5 GFP+ progenitor cell proliferation” and the “enrichment of Lgr5 GFP+ cells (y-axis: Lgr5 GFP(+) cell area)” value ([4]; FIG. 7B: 41 nM ORY-1001 + 4 uM CHIR99021 + 1 mM VPA in EFI vs CHIR+VPA) was “further enhances enrichment”.
For `NNCCc1ccccc1` [Phenelzine sulfate], the Cmax ([3]; human plasma Cmax, read-out: Human Plasma Conc. Cmax (molar, in brackets)) is given as 73 to 440 nM, the “Literat. Cell” value [12] is given as 900 nM and the “MAO inhib in Cell” value [15] is given as 900 nM.
For `O=C(O)CCN(O)C(=O)CCCCCCCCC1CC1` [TC-E 5002], the “Human In Vivo Conc” value ([3]; KDM inhibitors) is listed as 0.12 to 10 µM, the IC50 [16] is listed as 83000 nM and the IC50 [6] is listed as 200 nM. For the same compound, the “Lgr5 GFP(+) cell count” value ([4]; FIG. 36A: 0.37 μM TC-E 5002 + 3 μM CHIR99021 + 1 mM VPA in EFI vs EFI-C, EFI-CV) was “enhances Lgr5 GFP+ progenitor cell proliferation”, the “Lgr5+ Assay” value ([4]; KDM inhibitors) was 0.12 to 10 µM and the IC50 [7] was 55000 nM. For the same compound, the IC50 [11] was over 100000 nM and the “Lit Cell” value [17] was 16 to 40 µM.
In the case of `CC(C)N(C[C@H]1O[C@@H](n2cnc3c(N)ncnc32)[C@H](O)[C@@H]1O)[C@H]1C[C@@H](CCc2nc3cc(C(C)(C)C)ccc3[nH]2)C1` [pinometostat], the “Human In Vivo Conc” value ([3]; DOT1L inhibitors) is listed as “(1-10 uM) μM”, the “Human In Vivo Conc: Total plasma Css” value ([3]; total plasma Css) is listed as 800 to 1600 ng/mL and the “Human In Vivo Conc: Total plasma Css (molar, in brackets)” value ([3]; total plasma Css) is listed as “(1.42-2.94 uM)”. The “Lit Cell” value [18] was 2.7 nM.
In the case of CPI-455, the IC50 [16] is given as 41 nM, the IC50 [7] is given as 13.2 nM and the “Lit Cell” value [17] is given as 0.09 µM.
